Legend:
[1] = biological target: farnesyl-pyrophosphate synthase (Saccharomyces cerevisiae, UniProt P08524); experiment: farnesyl-pyrophosphate synthase inhibition assay (coupled assay, malachite green, 384-well MTP); type: biochemical; conditions: read-out: p150 (converted)
Source text: A preferred method exploits the fact that two pyrophosphate molecules are liberated in the farnesyl-pyrophosphate synthase reaction. The activity, or the decrease or increase in activity, of the polypeptide according to the invention can thus be determined by enzymatically cleaving the pyrophosphate by means of inorganic pyrophosphatase and subsequently detecting the orthophosphate which has been liberated, using a phosphate detection reagent. The lower, or inhibited, activity of the polypeptide according to the invention is monitored with reference to the photospectrometric determination of the decrease or increase, of the orthophosphate which has been liberated. The concentration of phosphate which has been liberated can then be determined with a phosphate detection reagent at an absorption maximum at 620 nm.
The measurement can also be carried out in formats conventionally used for HTS or UHTS assays, for example in microtitre plates, into which for example a total volume of 5 to 50 μl is introduced per reaction or per well and the individual components are present in one of the above-stated final concentrations (cf. Example 2). […] The polypeptide according to the invention is then added in the abovementioned assay buffer containing the auxiliary enzyme inorganic pyrophosphatase, which is required for the coupled assay, thus starting the reaction. The mixture is then incubated for example for up to 40 minutes at a suitable temperature, and the increase in absorption is measured at 620 nm.
A further measurement is carried out in a corresponding mixture, but without addition of a candidate molecule and without addition of a polypeptide according to the invention (negative control). Another measurement, in turn, is carried out in the absence of a candidate molecule, but in the presence of the polypeptide according to the invention (positive control). The negative and the positive controls thus provide the reference values for the mixtures in the presence of a candidate molecule.
A pI50 value of 8, for example, corresponds to half the maximum inhibition of the enzyme at a concentration of 10 nM.
384-well microtitre plates from Greiner were used for identifying farnesyl-pyrophosphate synthase modulators.
The negative control was pipetted into the first column.
The positive control was pipetted into the second column.
A test substance in a concentration of 2 μM in DMSO was introduced into the remaining columns, 5 μl of the assay buffer being used for diluting the substance to a volume of. […] This was followed by incubation at room temperature for 40 minutes. The reaction was subsequently quenched by addition of 50 μl of malachite green solution (three parts of 0.025% malachite green solution (in water) were mixed with one part of 2% ammonium heptamolybdate solution (in 4 M HCl) and 39 parts of this solution were mixed with one part of 7.5% Tween 20 (in water) immediately prior to testing) and the mixture was incubated for 90 minutes at room temperature. The orthophosphate generated during the reaction was measured by determining the absorption at 620 nm in a Tecan […]luor Plus suitable for MTPs.

[2] = tested on: Phytophthora infestans (Plant affected: tomato); type: in vivo; conditions: concentration at which an efficacy of 50% was achieved, protective
[3] = tested on: Phytophthora infestans (Plant affected: barley); type: in vivo; conditions: concentration at which an efficacy of 50% was achieved, protective
[4] = tested on: Alternaria solani (plant affected: tomato); experiment: protective action for plants (spray, inoculation); type: in vivo; conditions: concentration for 50% efficacy
Procedure: (§1) The effect, on fungi, of compounds found with the aid of a method according to the invention can also be assayed by testing their protective action for plants. To this end a suitable active substance preparation is prepared. For example 1 part by weight of active substance is mixed with, for example, 24.5 parts by weight of acetone and 24.5 parts by weight of dimethylformamide and 1 part by weight of alkylaryl polyglycol ether as emulsifier, and the concentrate is diluted to the desired concentration.
(§2) To test for protective action, young plants are sprayed with the active substance preparation. After the spray coating has dried on, the plants are inoculated with an aqueous suspension (conidia suspension) of a fungus and then remain for 1 day in an incubation chamber at approximately 20° C. and 100% relative atmospheric humidity.
(§3) The plants are then placed in a greenhouse at approx. 12° C. and a relative atmospheric humidity of approx. 90%.
(§4) The test is evaluated 1 to 12 days after the inoculation. 0% means an efficacy which corresponds to that of the control, while an efficacy of 100% means that no disease is observed.
(§5) The examples in question can be seen from the fact that an affected plant has been stated.

[5] = tested on: Erysiphe graminis (plant affected: barley); experiment: protective action for plants (spray, inoculation); type: in vivo; conditions: concentration for 50% efficacy
Procedure: as §1, §2, §3, §4, §5

[6] = tested on: Leptosphaeria nodorum (plant affected: wheat); experiment: protective action for plants (spray, inoculation); type: in vivo; conditions: concentration for 50% efficacy
Procedure: as §1, §2, §3, §4, §5

[7] = tested on: Sphaerotheca fuliginea (plant affected: cucumber); experiment: protective action for plants (spray, inoculation); type: in vivo; conditions: concentration for 50% efficacy
Procedure: as §1, §2, §3, §4, §5

[8] = tested on: Pyricularia oryzae (plant affected: rice); type: in vivo; conditions: concentration for 50% efficacy, protective
[9] = biological target: yeast farnesyl-pyrophosphate synthase (Saccharomyces cerevisiae, UniProt P08524); conditions: substrate of yeast farnesyl-pyrophosphate synthase
[10] = substrate: C=C(C)CCO[P@@](=O)(O)OP(=O)(O)O; experiment: purified protein, by the assay type; conditions: other: substrate of yeast farnesyl-pyrophosphate synthase

## CC(=O)[n+]1ccc(-c2cc[n+](C(C)=O)cc2)cc1 [Example 1]
[1]
  IC50: 7.41 µM

## CC(=O)Nc1nc(-c2ccccc2OCC(N)=O)cc(-c2cccc(NC(=O)c3ccc([N+](=O)[O-])cc3)c2)c1C#N [Example 2]
[1]
  IC50: 31.6 µM

## CC(Oc1ccccc1)C(=O)Nc1cc(C(=O)N[C@@H](Cc2ccccc2)C(=O)O)ccc1N1CCN(C(c2ccccc2)c2ccccc2)CC1 (some centres unmarked) [Example 3]
[1]
  IC50: 31.6 µM
[2]
  ED50: 500 ppm
[3]
  ED50: 500 ppm

## CC(C)(CN)CN(C(=O)c1cccs1)c1ccc(-c2ccc(N3CCN(c4ccccn4)CC3)c(NC(=O)CCC3CCCC3)c2)cc1 [Example 4]
[1]
  IC50: 39.8 µM
[2]
  ED50: 500 ppm
[3]
  ED50: 500 ppm

## COc1ccc(CN(CC(C)(C)CN)C(=O)c2cccc(C)c2)cc1-c1ccc(N2CCC(Cc3ccccc3)CC2)c(NC(=O)c2cccs2)c1 [Example 5]
[1]
  IC50: 25.1 µM
[2]
  ED50: 548 ppm
[4]
  ED50: 548 ppm
[5]
  ED50: 548 ppm
[6]
  ED50: 548 ppm
[7]
  ED50: 548 ppm
[8]
  ED50: 548 ppm

## CC(C)=CCOP(=O)(O)OP(=O)(O)O [dimethylallyl pyrophosphate]
[9]
  Km: 36 µM

B1: yeast farnesyl-pyrophosphate synthase (Saccharomyces cerevisiae S288C) (protein)
chain: MASEKEIRRERFLNVFPKLVEELNASLLAYGMPKEACDWYAHSLNYNTPGGKLNRGLSVVDTYAILSNKTVEQLGQEEYEKVAILGWCIELLQAYFLVADDMMDKSITRRGQPCWYKVPEVGEIAINDAFMLEAAIYKLLKSHFRNEKYYIDITELFHEVTFQTELGQLMDLITAPEDKVDLSKFSLKKHSFIVTFKTAYYSFYLPVALAMYVAGITDEKDLKQARDVLIPLGEYFQIQDDYLDCFGTPEQIGKIGTDIQDNKCSWVINKALELASAEQRKTLDENYGKKDSVAEAKCKKIFNDLKIEQLYHEYEESIAKDLKAKISQVDESRGFKADVLTAFLNKVYKRSK
[10]
  Km: 49 µM
